Data taken from the supplement of paper PMC10307832.

Legend:
Assay in all cases: relative viability (nuclei count vs DMSO), 5 days (fraction); higher = more cells survive
AZD8055 = compound: COc1ccc(-c2ccc3c(N4CCOC[C@@H]4C)nc(N4CCOC[C@@H]4C)nc3n2)cc1CO [AZD8055]
Method in brief: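 Hoechst staining, done together with fixation and permeabilisation, marked nuclei for 4× imaging and MetaXpress counting. This followed 5 days without medium change after lung cancer cell lines, kept overnight at 37 °C in 1536-well plates, were pinned with five library-drug doses (not always all listed) spaced by √10 on vehicle-anchored plates. Viability is the ratio of treated-well to vehicle-well nuclei, expressed as a median across plates. Plates passed only at control CV below 25% with at least one doubling.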

AZD8055 + Bortezomib = compound: COc1ccc(-c2ccc3c(N4CCOC[C@@H]4C)nc(N4CCOC[C@@H]4C)nc3n2)cc1CO [AZD8055] + CC(C)C[C@H](NC(=O)[C@H](Cc1ccccc1)NC(=O)c1cnccn1)B(O)O [Bortezomib] (partner 0.002 µM)
Method in brief: (§1)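 Lung cancer cell lines were seeded in 1536-well plates and dosed by pin tool the next day, with either a single drug or a fixed anchor-drug dose combined with five library-drug doses (not always all listed) spaced in √10 steps. Five days later, one step fixed the cells and stained their nuclei (final 0.05% Triton X-100, 1% formaldehyde, 1 ug/ml Hoechst), and nuclei were counted on 4× images. Relative viability is the nuclei count in treated wells divided by the count in vehicle wells, and each value is the median of duplicate plates.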

AZD8055 + Navitoclax = compound: COc1ccc(-c2ccc3c(N4CCOC[C@@H]4C)nc(N4CCOC[C@@H]4C)nc3n2)cc1CO [AZD8055] + CC1(C)CCC(c2ccc(Cl)cc2)=C(CN2CCN(c3ccc(C(=O)NS(=O)(=O)c4ccc(N[C@H](CCN5CCOCC5)CSc5ccccc5)c(S(=O)(=O)C(F)(F)F)c4)cc3)CC2)C1 [Navitoclax] (partner 0.5 µM)
Method in brief: as §1

AZD8055 + Foretinib = compound: COc1ccc(-c2ccc3c(N4CCOC[C@@H]4C)nc(N4CCOC[C@@H]4C)nc3n2)cc1CO [AZD8055] + COc1cc2c(Oc3ccc(NC(=O)C4(C(=O)Nc5ccc(F)cc5)CC4)cc3F)ccnc2cc1OCCCN1CCOCC1 [Foretinib] (partner 0.25 µM)
Method in brief: as §1

AZD8055 + Lapatinib = compound: COc1ccc(-c2ccc3c(N4CCOC[C@@H]4C)nc(N4CCOC[C@@H]4C)nc3n2)cc1CO [AZD8055] + CS(=O)(=O)CCNCc1ccc(-c2ccc3ncnc(Nc4ccc(OCc5cccc(F)c5)c(Cl)c4)c3c2)o1 [Lapatinib] (partner 2 µM)
Method in brief: as §1

AZD8055 + Pictilisib = compound: COc1ccc(-c2ccc3c(N4CCOC[C@@H]4C)nc(N4CCOC[C@@H]4C)nc3n2)cc1CO [AZD8055] + CS(=O)(=O)N1CCN(Cc2cc3nc(-c4cccc5[nH]ncc45)nc(N4CCOCC4)c3s2)CC1 [Pictilisib] (partner 1 µM)
Method in brief: as §1

AZD8055 + Crizotinib = compound: COc1ccc(-c2ccc3c(N4CCOC[C@@H]4C)nc(N4CCOC[C@@H]4C)nc3n2)cc1CO [AZD8055] + C[C@@H](Oc1cc(-c2cnn(C3CCNCC3)c2)cnc1N)c1c(Cl)ccc(F)c1Cl [Crizotinib] (partner 1 µM)
Method in brief: as §1

AZD8055 + Linsitinib = compound: COc1ccc(-c2ccc3c(N4CCOC[C@@H]4C)nc(N4CCOC[C@@H]4C)nc3n2)cc1CO [AZD8055] + C[C@]1(O)C[C@@H](c2nc(-c3ccc4ccc(-c5ccccc5)nc4c3)c3c(N)nccn32)C1 [Linsitinib] (partner 1 µM)
Method in brief: as §1

AZD8055 + Alpelisib = compound: COc1ccc(-c2ccc3c(N4CCOC[C@@H]4C)nc(N4CCOC[C@@H]4C)nc3n2)cc1CO [AZD8055] + Cc1nc(NC(=O)N2CCC[C@H]2C(N)=O)sc1-c1ccnc(C(C)(C)C(F)(F)F)c1 [Alpelisib] (partner 2 µM)
Method in brief: as §1

AZD8055 + Olaparib = compound: COc1ccc(-c2ccc3c(N4CCOC[C@@H]4C)nc(N4CCOC[C@@H]4C)nc3n2)cc1CO [AZD8055] + O=C(c1cc(Cc2n[nH]c(=O)c3ccccc23)ccc1F)N1CCN(C(=O)C2CC2)CC1 [Olaparib] (partner 8 µM)
Method in brief: as §1

AZD8055 + Luminespib = compound: COc1ccc(-c2ccc3c(N4CCOC[C@@H]4C)nc(N4CCOC[C@@H]4C)nc3n2)cc1CO [AZD8055] + CCNC(=O)c1noc(-c2cc(C(C)C)c(O)cc2O)c1-c1ccc(CN2CCOCC2)cc1 [Luminespib] (partner 0.01 µM)
Method in brief: as §1

AZD8055 + OSI-027 = compound: COc1ccc(-c2ccc3c(N4CCOC[C@@H]4C)nc(N4CCOC[C@@H]4C)nc3n2)cc1CO [AZD8055] + COc1cccc2cc(-c3nc([C@H]4CC[C@H](C(=O)O)CC4)n4ncnc(N)c34)[nH]c12 [OSI-027] (partner 0.5 µM)
Method in brief: as §1

AZD8055 + Tozasertib = compound: COc1ccc(-c2ccc3c(N4CCOC[C@@H]4C)nc(N4CCOC[C@@H]4C)nc3n2)cc1CO [AZD8055] + Cc1cc(Nc2cc(N3CCN(C)CC3)nc(Sc3ccc(NC(=O)C4CC4)cc3)n2)n[nH]1 [Tozasertib] (partner 0.1 µM)
Method in brief: as §1

AZD8055 + Dasatinib = compound: COc1ccc(-c2ccc3c(N4CCOC[C@@H]4C)nc(N4CCOC[C@@H]4C)nc3n2)cc1CO [AZD8055] + Cc1nc(Nc2ncc(C(=O)Nc3c(C)cccc3Cl)s2)cc(N2CCN(CCO)CC2)n1 [Dasatinib] (partner 0.075 µM)
Method in brief: as §1

AZD8055 + Phenformin = compound: COc1ccc(-c2ccc3c(N4CCOC[C@@H]4C)nc(N4CCOC[C@@H]4C)nc3n2)cc1CO [AZD8055] + N=C(N)NC(=N)NCCc1ccccc1 [Phenformin] (partner 250 µM)
Method in brief: as §1

## Calu-6
AZD8055; 0.01 µM
  relative viability: 1.13
AZD8055; 0.03162 µM
  relative viability: 0.991
AZD8055; 0.1 µM
  relative viability: 0.835
AZD8055; 0.3162 µM
  relative viability: 0.621
AZD8055; 1 µM
  relative viability: 0.449
AZD8055 + Bortezomib; first compound 0.01 µM
  relative viability: 1.04
AZD8055 + Bortezomib; first compound 0.03162 µM
  relative viability: 0.917
AZD8055 + Bortezomib; first compound 0.1 µM
  relative viability: 0.824
AZD8055 + Bortezomib; first compound 0.3162 µM
  relative viability: 0.489
AZD8055 + Bortezomib; first compound 1 µM
  relative viability: 0.457
AZD8055 + Navitoclax; first compound 0.01 µM
  relative viability: 0.886
AZD8055 + Navitoclax; first compound 0.03162 µM
  relative viability: 0.792
AZD8055 + Navitoclax; first compound 0.1 µM
  relative viability: 0.621
AZD8055 + Navitoclax; first compound 0.3162 µM
  relative viability: 0.32
AZD8055 + Navitoclax; first compound 1 µM
  relative viability: 0.313
AZD8055 + Foretinib; first compound 0.01 µM
  relative viability: 0.878
AZD8055 + Foretinib; first compound 0.03162 µM
  relative viability: 0.839
AZD8055 + Foretinib; first compound 0.1 µM
  relative viability: 0.691
AZD8055 + Foretinib; first compound 0.3162 µM
  relative viability: 0.439
AZD8055 + Foretinib; first compound 1 µM
  relative viability: 0.346
AZD8055 + Lapatinib; first compound 0.01 µM
  relative viability: 1.22
AZD8055 + Lapatinib; first compound 0.03162 µM
  relative viability: 0.926
AZD8055 + Lapatinib; first compound 0.1 µM
  relative viability: 0.816
AZD8055 + Lapatinib; first compound 0.3162 µM
  relative viability: 0.718
AZD8055 + Lapatinib; first compound 1 µM
  relative viability: 0.485
AZD8055 + Pictilisib; first compound 0.01 µM
  relative viability: 0.826
AZD8055 + Pictilisib; first compound 0.03162 µM
  relative viability: 0.737
AZD8055 + Pictilisib; first compound 0.1 µM
  relative viability: 0.531
AZD8055 + Pictilisib; first compound 0.3162 µM
  relative viability: 0.4
AZD8055 + Pictilisib; first compound 1 µM
  relative viability: 0.366
AZD8055 + Crizotinib; first compound 0.01 µM
  relative viability: 1.03
AZD8055 + Crizotinib; first compound 0.03162 µM
  relative viability: 0.699
AZD8055 + Crizotinib; first compound 0.1 µM
  relative viability: 0.556
AZD8055 + Crizotinib; first compound 0.3162 µM
  relative viability: 0.42
AZD8055 + Crizotinib; first compound 1 µM
  relative viability: 0.322
AZD8055 + Linsitinib; first compound 0.01 µM
  relative viability: 1.09
AZD8055 + Linsitinib; first compound 0.03162 µM
  relative viability: 0.77
AZD8055 + Linsitinib; first compound 0.1 µM
  relative viability: 0.637
AZD8055 + Linsitinib; first compound 0.3162 µM
  relative viability: 0.356
AZD8055 + Linsitinib; first compound 1 µM
  relative viability: 0.329
AZD8055 + Alpelisib; first compound 0.01 µM
  relative viability: 0.911
AZD8055 + Alpelisib; first compound 0.03162 µM
  relative viability: 0.69
AZD8055 + Alpelisib; first compound 0.1 µM
  relative viability: 0.524
AZD8055 + Alpelisib; first compound 0.3162 µM
  relative viability: 0.399
AZD8055 + Alpelisib; first compound 1 µM
  relative viability: 0.339
AZD8055 + Olaparib; first compound 0.01 µM
  relative viability: 0.716
AZD8055 + Olaparib; first compound 0.03162 µM
  relative viability: 0.616
AZD8055 + Olaparib; first compound 0.1 µM
  relative viability: 0.505
AZD8055 + Olaparib; first compound 0.3162 µM
  relative viability: 0.478
AZD8055 + Olaparib; first compound 1 µM
  relative viability: 0.362

## NCI-H1623
AZD8055; 0.01 µM
  relative viability: 0.916
AZD8055; 0.03162 µM
  relative viability: 1.03
AZD8055; 0.1 µM
  relative viability: 0.79
AZD8055; 0.3162 µM
  relative viability: 0.469
AZD8055; 1 µM
  relative viability: 0.36
AZD8055 + Luminespib; first compound 0.01 µM
  relative viability: 0.483
AZD8055 + Luminespib; first compound 0.03162 µM
  relative viability: 0.434
AZD8055 + Luminespib; first compound 0.1 µM
  relative viability: 0.343
AZD8055 + Luminespib; first compound 0.3162 µM
  relative viability: 0.347
AZD8055 + Luminespib; first compound 1 µM
  relative viability: 0.278
AZD8055 + Foretinib; first compound 0.01 µM
  relative viability: 0.885
AZD8055 + Foretinib; first compound 0.03162 µM
  relative viability: 1.03
AZD8055 + Foretinib; first compound 0.1 µM
  relative viability: 0.578
AZD8055 + Foretinib; first compound 0.3162 µM
  relative viability: 0.438
AZD8055 + Foretinib; first compound 1 µM
  relative viability: 0.381
AZD8055 + OSI-027; first compound 0.01 µM
  relative viability: 0.419
AZD8055 + OSI-027; first compound 0.03162 µM
  relative viability: 0.521
AZD8055 + OSI-027; first compound 0.1 µM
  relative viability: 0.425
AZD8055 + OSI-027; first compound 0.3162 µM
  relative viability: 0.411
AZD8055 + OSI-027; first compound 1 µM
  relative viability: 0.379
AZD8055 + Tozasertib; first compound 0.01 µM
  relative viability: 0.46
AZD8055 + Tozasertib; first compound 0.03162 µM
  relative viability: 0.47
AZD8055 + Tozasertib; first compound 0.1 µM
  relative viability: 0.397
AZD8055 + Tozasertib; first compound 0.3162 µM
  relative viability: 0.254
AZD8055 + Tozasertib; first compound 1 µM
  relative viability: 0.288
AZD8055 + Dasatinib; first compound 0.01 µM
  relative viability: 0.545
AZD8055 + Dasatinib; first compound 0.03162 µM
  relative viability: 0.584
AZD8055 + Dasatinib; first compound 0.1 µM
  relative viability: 0.412
AZD8055 + Dasatinib; first compound 0.3162 µM
  relative viability: 0.29
AZD8055 + Dasatinib; first compound 1 µM
  relative viability: 0.234
AZD8055 + Phenformin; first compound 0.01 µM
  relative viability: 0.586
AZD8055 + Phenformin; first compound 0.03162 µM
  relative viability: 0.597
AZD8055 + Phenformin; first compound 0.1 µM
  relative viability: 0.521
AZD8055 + Phenformin; first compound 0.3162 µM
  relative viability: 0.324
AZD8055 + Phenformin; first compound 1 µM
  relative viability: 0.316
